Measured values taken from paper PMC6112376, “Comprehensive Analyses and Prioritization of Tox21 10K Chemicals Affecting Mitochondrial Function by in-Depth Mechanistic Studies” (Environmental Health Perspectives, 2018).
Where two headings read alike, the source gives them in different places.

Tests used:
rat primary hepatocytes [1] = tested on: rat primary hepatocytes
HepG2 cells [2] = conditions: for IC50: read-out: MMP assays IC50 (µM) HepG2
HepG2 cells [3] = conditions: cited from earlier work
rat primary hepatocytes [4] = experiment: MMP assay in rat primary hepatocytes; conditions: for IC50: read-out: MMP assays IC50 (µM) Rat Hepatocytes
[5] = read-out: MMP assays IC50 (µM), qHTS-HepG2
[6] = read-out: MMP assays IC50 (µM) qHTS-HepG2
[7] = HepG2 cells, single number from one experiment

| Molecule | MMP assays efficacy (%) Rat Hepatocytes (rat primary hepatocytes [1]) | MMP assays efficacy (%) HepG2 (HepG2 cells [2]) | IC50 (HepG2 cells [2]) | MMP assays efficacy (%) qHTS-HepG2 (HepG2 cells [3]) | IC50 (HepG2 cells [3]; [5]) | IC50 (rat primary hepatocytes [4]; Rattus norvegicus, Hepatocyte) | MMP assays IC50 (µM) HepG2 (HepG2 cells [2]) | IC50 (HepG2 cells [3]; [6]) | MMP assays IC50 (µM) Rat Hepatocytes (rat primary hepatocytes [4]) | IC50 (rat primary hepatocytes [4]) | MMP assays efficacy (%) HepG2 (HepG2 cells [2]; [7]) | IC50 (HepG2 cells [2]; [7]) | IC50 (rat primary hepatocytes [4]; rat hepatocytes, mean ± SD of three experiments) | MMP assays IC50 (µM) qHTS-HepG2 (HepG2 cells [3]) |
| --- | --- | --- | --- | --- | --- | --- | --- | --- | --- | --- | --- | --- | --- | --- |
| CN(C)c1ccc2nc3ccc(=[N+](C)C)cc-3sc2c1 [Methylene blue trihydrate] | -93±3% | -69% | 4.82 µM | -67±11% | 1.31 ± 0.79 µM | 7.29 ± 7.49 µM | – | – | – | – | – | – | – | – |
| CCC1(c2ccccc2)C(=O)NC(=O)N(C(=O)c2ccccc2)C1=O (stereo not drawn) [Benzobarbital] | inactive | inactive | – | -82±27% | – | – | inactive | 24.1 ± 5.12 µM | inactive | – | – | – | – | – |
| O=[N+]([O-])c1ccc(F)c([N+](=O)[O-])c1 [1-Fluoro-2,4-dinitrobenzene] | -68±38% | -103% | 5.48 µM | -104±8% | – | – | – | 3.71 ± 0.6 µM | – | 8.3 ± 5.67 µM | – | – | – | – |
| Cresyl diphenyl phosphate | -76±37% | -91% | 3.55 µM | – | – | – | – | 2.38 ± 2.32 µM | – | 23 ± 9 µM | – | – | – | – |
| O=C(Nc1ccc(Br)cc1)c1cc(Br)cc(Br)c1O [Tribromosalan] | -96±35% | – | – | – | 1.12 µM | – | – | – | – | – | -111% | 0.97 µM | 0.55 ± 0.36 µM | – |
| Oc1ccc2ccccc2c1N=Nc1ccccc1 [C.I. Solvent yellow 14] | -86±4% | -110% | 15.8 µM | -69±8% | – | – | – | 5.84 ± 2.06 µM | – | 17 ± 10.6 µM | – | – | – | – |
| CCCCCCCC[P+](CCCCCCCC)(CCCCCCCC)CCCCCCCC.[Br-] [Tetraoctylphosphonium bromide] | -90±21% | -105% | 0.32 µM | -91±6% | 0.18 ± 0.12 µM | – | – | – | – | 6.82 ± 2.23 µM | – | – | – | – |
| O=c1oc2ccccc2c(O)c1C(CC(O)c1ccc(-c2ccc(Br)cc2)cc1)c1ccccc1 (stereo not drawn) [Bromadiolone] | -79±51% | -108% | 4.35 µM | -105±3% | – | – | – | 16.7 ± 1.13 µM | – | 3.4 ± 0.83 µM | – | – | – | – |
| NC(=O)c1cc([N+](=O)[O-])cc([N+](=O)[O-])c1 [Nitromide] | inactive | inactive | – | inactive | – | – | inactive | – | inactive | – | – | – | – | inactive |
| CC=O [Acetaldehyde] | -52±35% | inactive | – | -90±14% | – | – | inactive | 18 ± 6.38 µM | – | 6.65 ± 4.48 µM | – | – | – | – |
| O=C1NC(=O)c2cccc3cccc1c23 [1H-Benzo[de]isoquinoline-1,3(2H)-dione] | -43±22% | -77% | 14.1 µM | -77±24% | – | – | – | 8.31 ± 3.47 µM | – | 5.56 ± 8.92 µM | – | – | – | – |
| C[C@@H]1C/C=C/C=C/C=C/C=C/[C@H](O[C@@H]2O[C@H](C)[C@@H](O)[C@H](N)[C@@H]2O)C[C@@H]2O[C@](O)(C[C@@H](O)C[C@H]3O[C@@H]3/C=C/C(=O)O1)C[C@H](O)[C@H]2C(=O)O [Natamycin] | inactive | inactive | – | inactive | – | – | inactive | – | inactive | – | – | – | – | inactive |
| Tributyltin chloride | -136±58% | -96% | 0.89 µM | -97±11% | 0.11 ± 0.02 µM | – | – | – | – | 8.95 ± 1.03 µM | – | – | – | – |
| CN(C)c1ccc(C(=C2C=CC(=[N+](C)C)C=C2)c2ccccc2)cc1.CN(C)c1ccc(C(=C2C=CC(=[N+](C)C)C=C2)c2ccccc2)cc1.O=C(O)C(=O)O.O=C([O-])C(=O)O.O=C([O-])C(=O)O [Malachite green oxalate] | -44±26% | -65% | 27.5 µM | -100±20% | 2.1 ± 1.87 µM | – | – | – | – | 8.67 ± 12.3 µM | – | – | – | – |
| O=c1c(O)c(-c2ccc(O)c(O)c2)oc2cc(O)cc(O)c12 [Quercetin dihydrate] | -71±22% | -96% | 2.95 µM | -98±4% | 6.2 ± 2.32 µM | – | – | – | – | 5.83 ± 4.93 µM | – | – | – | – |
| CC(C)c1ccc(O)c(C(C)C)c1 [2,4-Diisopropylphenol] | inactive | -115% | 35.5 µM | -107±10% | – | – | – | 17.2 ± 1.99 µM | inactive | – | – | – | – | – |
| Cl.Cl.NNCc1ccccc1 [Benzylhydrazine dihydrochloride] | inactive | -88% | 19.9 µM | -106±12% | – | – | – | 27.8 ± 3.21 µM | inactive | – | – | – | – | – |
| CN1C[C@H](C(=O)N[C@]2(C)O[C@@]3(O)[C@@H]4CCCN4C(=O)[C@H](Cc4ccccc4)N3C2=O)C=C2c3cccc4[nH]cc(c34)C[C@H]21 [Ergotamine D-tartrate] | inactive | inactive | – | -54±10% | – | – | inactive | 7.55 ± 1.06 µM | inactive | – | – | – | – | – |
| COc1ccc2c(=O)c(C)c(-c3ccccc3)oc2c1CN(C)C.Cl [Dimefline hydrochloride] | inactive | inactive | – | inactive | – | – | inactive | – | inactive | – | – | – | – | inactive |
| CCN1CCC2(CC1)COc1cc3c(cc12)N(C(=O)c1ccc(-c2ccc(-c4nnc(C)o4)cc2C)cc1)CC3.Cl | -109±26% | -111% | 19.9 µM | -58±10% | – | – | – | 6.09 ± 2.54 µM | – | 40.9 ± 16 µM | – | – | – | – |
| O=C(NC(=O)c1c(F)cccc1F)Nc1ccc(OC(F)(F)C(F)OC(F)(F)F)c(Cl)c1 (stereo not drawn) [Novaluron] | inactive | inactive | – | inactive | – | – | inactive | – | inactive | – | – | – | – | inactive |
| Cl.Cl.Nc1ccccc1N [1,2-Phenylenediamine dihydrochloride] | -104±10% | -90% | 1.78 µM | -99±9% | – | – | – | 0.44 ± 0.2 µM | – | 14.2 ± 2.3 µM | – | – | – | – |
| Oc1cc2ccccc2c2ccccc12 [Compound 9-Phenanthrol] | -94±31% | -101% | 3.55 µM | -101±8% | – | – | – | 1.22 ± 0.56 µM | – | 47.3 ± 10.7 µM | – | – | – | – |
| COc1cc(Cl)ccc1Oc1ccc(Cl)cc1Cl [Methyl triclosan] | -95±27% | -95% | 39.8 µM | -79±13% | 25.5 ± 1.67 µM | – | – | – | – | 45.9 ± 14.7 µM | – | – | – | – |
| CCCCCCCCCCCCCC[P+](CCCC)(CCCC)CCCC.[Cl-] [Tributyltetradecylphosphonium chloride] | -93±15% | – | 1.12 µM | -82±17% | 0.71 ± 0.15 µM | – | – | – | – | 7.66 ± 0.5 µM | – | – | – | – |
| CC(=O)OCC(=O)[C@@]12OC(C)(C)O[C@@H]1C[C@H]1[C@@H]3C[C@H](F)C4=CC(=O)C=C[C@]4(C)[C@@]3(F)[C@@H](O)C[C@@]12C [Fluocinonide] | inactive | inactive | – | inactive | – | – | inactive | – | inactive | – | – | – | – | inactive |
| CC(=O)O[C@H]1C[C@H](O[C@H]2[C@@H](O)C[C@H](O[C@H]3[C@@H](O)C[C@H](O[C@H]4CC[C@@]5(C)[C@H](CC[C@@H]6[C@@H]5CC[C@]5(C)[C@@H](C7=CC(=O)OC7)[C@@H](O)C[C@]65O)C4)O[C@@H]3C)O[C@@H]2C)O[C@H](C)[C@H]1O[C@@H]1O[C@H](CO)[C@@H](O)[C@H](O)[C@H]1O [Lanatoside B] | inactive | -96% | 0.69 µM | -68±14% | 1.1 ± 0.2 µM | – | – | – | inactive | – | – | – | – | – |
| O=C(c1ccc(OCCN2CCCCC2)cc1)c1c(-c2ccc(O)cc2)sc2cc(O)ccc12 [Raloxifene] | -92±39% | -96% | 17.8 µM | -121±25% | 5.05 ± 3.99 µM | 22.4 ± 24.1 µM | – | – | – | – | – | – | – | – |
| C[C@]12CC[C@@H]3c4ccc(O)cc4CC[C@H]3[C@@H]1CC[C@@H]2OP(=O)(O)O [Estradiol phosphate] | inactive | inactive | – | inactive | – | – | inactive | – | inactive | – | – | – | – | inactive |
